Laboratory results as given in PMC12561453, “Synthesis and Structure–Activity Relationship Study of 2-(amino)quinazolin-4(3H)-one Derivatives as Potential Inhibitors of Methicillin-Resistant Staphylococcus aureus (MRSA)” (Antibiotics, 2025).
Values after ≈ are worked out from the molar mass of the structure shown. Like-named read-outs stand apart in the source and are kept apart here.

What was measured:
[1] = tested on: S. aureus ATCC25923; assay: Broth microdilution dose-response, S. aureus ATCC25923; assay type: cell-based, Staphylococcus aureus
Source text: (§1) The antistaphylococcal activities (MIC50) of the synthesized compounds were examined via a previously described broth microdilution method against two S. aureus strains: ATCC25923, a methicillin-sensitive reference strain, and JE2, a methicillin-resistant strain of the USA300 lineage (Figure 2, Table 1).
(§2) Staphylococcus aureus USA300, a methicillin-resistant strain, was obtained from the Nebraska Transposon Mutant Library. Staphylococcus aureus ATCC25923, a pan-drug-susceptible strain, was purchased from the American Type Culture Collection (ATCC) (Manassas, VA, USA). S. aureus strains were grown in Cation-Adjusted Mueller–Hinton broth (CAMHB) (Difco) at 37 °C. Bacterial strain stocks were stored in vials with 25% glycerol at −80 °C. For each experiment, overnight cultures were prepared by inoculating a frozen bacterial strain stock in 10 mL of CAMHB medium and incubating at 37 °C in a shaking incubator (180 rpm). For the preliminary screen and dose–response experiments, 100 µL of overnight culture was inoculated into 10 mL of fresh CAMHB and incubated for 3 h at 37 °C and 180 rpm.
(§3) Antibiotic susceptibility assay was tested according to modified Clinical and Laboratory Standards Institute (CLSI) laboratory guidelines for broth microdilution assays. S. aureus was cultured in CAMHB, and bacterial cells were prepared with an OD600 of 0.005. DRC plates were prepared by adding 40 µL of bacterial suspension to each well, where 10 µL of each compound had been dispensed for […] of two-fold serial dilutions starting at […]. After incubation of the plates at 37 °C for 18–24 h with 5% CO2, the growth of S. aureus was detected by measuring the OD600nm using an Ensight (Revvity) spectrometer (Revvity, Waltham, MA, USA).
(§4) Figure 2 In vitro antibacterial activities of 2-(amino)quinazolin-4(3H)-one derivatives. S. aureus ATCC25923 (blue) and USA300 JE (orange) strains were incubated with serial dilutions of 2-(amino)quinazolin-4(3H)-one derivatives (0.19–100 µM) for 18–24 h. The dose–responses were observed by measuring OD600nm. The plots were drawn from each group of strains with nonlinear curve fits.

[2] = tested on: HepG2 cells; assay: In vitro cytotoxicity, HepG2 viability (resazurin); assay type: cell-based, human; conditions: Homo sapiens, HepG2, 24 h, read-out: HepG2 IC50
Protocol: The in vitro cytotoxicity of the compounds was evaluated by measuring the viability of HepG2 cells, a human liver cell line, following treatment in a dose–response manner, as previously described. […] The efficacy window was calculated as the ratio of IC50 in HepG2 cells to MIC50 against JE2.
To test cytotoxicity with compounds, the human liver cell line HepG2 (ATCC #HB-8065) was used for the assay. HepG2 was cultured in DMEM with 10% fetal bovine serum (FBS) in a 96-well microplate at 37 °C and 5% CO2. HepG2 cells were seeded at a final density of 5 × 10^4 cells/well, and DMEM-containing diluted compounds were added and incubated on the plates at 37 °C in 5% CO2 for 24 h. After that, resazurin (final concentration, 0.1 mg/mL) was added to each well and incubated on the plates at 37 °C in 5% CO2 for 2 h. To detect the fluorescence at 530 nm excitation and 590 nm emission, an Ensight multimode plate reader was used (Revvity, Waltham, MA, USA).

[3] = tested on: S. aureus USA300 JE2; assay: Broth microdilution dose-response, S. aureus USA300 JE2 (MRSA); assay type: cell-based, Staphylococcus aureus; conditions: for fold better antibacterial activity against JE2 compared to compound 1: JE2, versus compound 1
Source text: as §1, §2, §3, §4

[4] = tested on: S. aureus USA300 JE2 expressing GFP in H460 cells; assay: microbe, parasite or virus in culture; assay type: cell-based, Staphylococcus aureus; conditions: for MIC50: Staphylococcus aureus, USA300, 24 h, read-out: H460 Assay MIC50 (MIC50 ex vivo)
Source text: Staphylococcus aureus, including MRSA, can invade host cells and replicate intracellularly, which complicates treatment with current therapies. To evaluate the intracellular antibacterial activities of the selected compounds, the fifteen compounds tested for cytotoxicity were further assessed using a cell infection model based on H460 human lung epithelial cells, which mimic MRSA-mediated pneumonia. H460 cells were infected with the USA300 JE2 expressing green fluorescent protein (GFP) and subsequently treated with the compounds in a dose–response manner, along with three reference antibiotics: vancomycin, linezolid, and erythromycin. After 24 h of incubation, bacterial loads were quantified by measuring GFP fluorescence in each well. MIC50 values determined in the H460 infection model (MIC50 ex vivo) were generally higher than those obtained from the in vitro tests, likely due to either limited compound penetration into host cells or reduced antibacterial effect of the compounds against intracellular bacteria (Figure 3, Table 2). […] These findings underscore the potential of compound 6y as a promising lead for further development as a novel antistaphylococcal agent.
To see the ex vivo antimicrobial activity of the compound, the human lung carcinoma cell line H460 (ATCC #HTB-177) was used. The H460 cells were cultured in RPMI 1640 medium with 10% fetal bovine serum (FBS) and in a 96-well microplate at 37 °C and 5% CO2. Cell lines were cultured for 2 days, until they reached full confluence in the well. S. aureus (USA300-containing and pCM29-encoding GFP) was cultured in CAMHB with 10 µg/mL of chloramphenicol, and bacterial cells were harvested. After washing the bacterial cells with phosphate-buffered saline (PBS) and suspending them in RPMI, infected H460 cells with S. aureus (1 × 10^7 CFU) and incubated them for 2.5 h. Samples were washed three times with PBS. Then, cells were treated with gentamicin (50 µg/mL of gentamicin in RPMI) and incubated for 1 h. Samples were washed with PBS, RPMI-containing diluted compounds were added, and then they were incubated at 37 °C in 5% CO2 for 24 h. To detect the Green fluorescent protein (GFP) signal, an Ensight multimode plate reader and Opera Phenix Plus (Revvity, Waltham, MA, USA) were used.
Ex vivo infection model images were generated using the Opera Phenix Plus high-content imaging system. Images were obtained by a confocal microscope with a 20× water objective lens. To detect the bacteria fluorescence signal (GFP), the Alexa 488 channel (488 nm laser/500–550 filter, Thermo Fisher Scientific, Waltham, MA, USA) was used, and the brightfield channel was used for H460 cell images.
Figure 3 Antibacterial activities of 2-(amino)quinazolin-4(3H)-one derivatives in the H460 infection model. H460 cells were infected with S. aureus USA300 JE strain expressing GFP, followed by treatment with serial dilutions of 2-(amino)quinazolin-4(3H)-one derivatives. After incubation at 37 °C for 24 h with 5% CO2, fluorescence signals of the bacteria were detected at 488 nm/510 nm using a multilabel plate reader.

[5] = Staphylococcus aureus, ATCC25923, methicillin-sensitive strain, OD600 after 18–24 h, read-out: ATCC25923 MIC50
[6] = methicillin-sensitive strain, OD600 after 18–24 h, read-out: ATCC25923 MIC50
[7] = Staphylococcus aureus, USA300, USA300 JE2, methicillin-resistant, OD600 after 18–24 h, read-out: USA300 MIC50
[8] = USA300 JE2, methicillin-resistant, OD600 after 18–24 h, read-out: USA300 MIC50

SMILES	MIC50 [1, 5] [µM]	MIC50 [1, 6] [µM]	IC50 ([2]; HepG2 cells, 24 h, resazurin) [µM]	fold better antibacterial activity against JE2 compared to compound 1 [3]	MIC50 [3, 7] [µM]	MIC50 [3, 8] [µM]	MIC50 [4] [µM]	MIC50 ([1]; Staphylococcus aureus, ATCC25923, read-out: ATCC25923 MIC50) [µM]	IC50 [2] [µM]	MIC50 ([3]; Staphylococcus aureus, USA300, read-out: USA300 MIC50) [µM]	H460 Assay MIC50 (MIC50 ex vivo) ([4]; H460 cells infected with USA300 JE2-GFP, 24 h, GFP fluorescence) [µM]
O=c1[nH]c(Nc2cc(Cl)cc(Cl)c2)nc2cc(Cl)c(Cl)cc12 [6h, 6,7-Dichloro-2-((3,5-dichlorophenyl)amino)quinazolin-4(3H)-one]	3 to 6 (≈ 1.13 to 2.25 µg/mL)	3.7 (≈ 1.39 µg/mL)	10.2	at least 6.5 fold	0.3 to 1.9 (≈ 0.113 to 0.713 µg/mL)	0.3 (≈ 0.113 µg/mL)	4.1 (≈ 1.54 µg/mL)				
O=c1[nH]c(Nc2cc(Cl)cc(Cl)c2)nc2c(Cl)cc(Cl)cc12 [6i, 6,8-Dichloro-2-((3,5-dichlorophenyl)amino)quinazolin-4(3H)-one]	3 to 6 (≈ 1.13 to 2.25 µg/mL)	5.7 (≈ 2.14 µg/mL)	39.5	at least 6.5 fold			26.5 (≈ 9.94 µg/mL)				
O=c1[nH]c(Nc2cc(Cl)cc(Cl)c2)nc2ccccc12 [6j, 2-((3,5-Dichlorophenyl)amino)quinazolin-4(3H)-one]	3 to 6 (≈ 0.918 to 1.84 µg/mL)	5.9 (≈ 1.81 µg/mL)	29.7	at least 6.5 fold			35.4 (≈ 10.8 µg/mL)				
O=c1[nH]c(Nc2cc(Cl)cc(Cl)c2)nc2cc(C(F)(F)F)ccc12 [6k, 2-((3,5-Dichlorophenyl)amino)-7-(trifluoromethyl)quinazolin-4(3H)-one]	1.3 (≈ 0.486 µg/mL)		10.5		0.3 (≈ 0.112 µg/mL)		6 (≈ 2.24 µg/mL)				
O=c1[nH]c(Nc2cc(F)cc(F)c2)nc2cc(Cl)ccc12 [6q, 7-Chloro-2-((3,5-difluorophenyl)amino)quinazolin-4(3H)-one]	2.1 to 4.5 (≈ 0.646 to 1.38 µg/mL)	2.1 (≈ 0.646 µg/mL)	35.5		0.9 to 3 (≈ 0.277 to 0.923 µg/mL)	0.9 (≈ 0.277 µg/mL)	8.7 (≈ 2.68 µg/mL)				
O=c1[nH]c(Nc2cccc(Cl)c2)nc2cc(Cl)ccc12 [6u, 7-Chloro-2-((3-chlorophenyl)amino)quinazolin-4(3H)-one]	2.1 to 4.5 (≈ 0.643 to 1.38 µg/mL)	3.5 (≈ 1.07 µg/mL)	4.3		0.9 to 3 (≈ 0.276 to 0.918 µg/mL)	1.1 (≈ 0.337 µg/mL)	19.2 (≈ 5.88 µg/mL)				
O=c1[nH]c(Nc2ccc(Cl)cc2)nc2cc(Cl)ccc12 [6v, 7-Chloro-2-((4-chlorophenyl)amino)quinazolin-4(3H)-one]	2.1 to 4.5 (≈ 0.643 to 1.38 µg/mL)	2.7 (≈ 0.827 µg/mL)	25.5		0.9 to 3 (≈ 0.276 to 0.918 µg/mL)	1.7 (≈ 0.52 µg/mL)	23.9 (≈ 7.32 µg/mL)				
O=c1[nH]c(NCc2ccc(Cl)cc2Cl)nc2cc(Cl)ccc12 [6x, 7-Chloro-2-((2,4-dichlorobenzyl)amino)quinazolin-4(3H)-one]	2.1 to 4.5 (≈ 0.745 to 1.6 µg/mL)	3.4 (≈ 1.21 µg/mL)	15.3		0.9 to 3 (≈ 0.319 to 1.06 µg/mL)	1.7 (≈ 0.603 µg/mL)	17.8 (≈ 6.31 µg/mL)				
CC[C@H]1OC(=O)[C@H](C)[C@@H](O[C@H]2C[C@@](C)(OC)[C@@H](O)[C@H](C)O2)[C@H](C)[C@@H](O[C@@H]2O[C@H](C)C[C@H](N(C)C)[C@H]2O)[C@](C)(O)C[C@@H](C)C(=O)[C@H](C)[C@@H](O)[C@]1(C)O [Erythromycin, reference compound]	0.7 (≈ 0.514 µg/mL)		> 100		0.49 (≈ 0.36 µg/mL)		0.1 (≈ 0.0734 µg/mL)				
CN[C@H](CC(C)C)C(=O)N[C@H]1C(=O)N[C@@H](CC(N)=O)C(=O)N[C@H]2C(=O)N[C@H]3C(=O)N[C@H](C(=O)N[C@H](C(=O)O)c4cc(O)cc(O)c4-c4cc3ccc4O)[C@H](O)c3ccc(c(Cl)c3)Oc3cc2cc(c3O[C@@H]2O[C@H](CO)[C@@H](O)[C@H](O)[C@H]2O[C@H]2C[C@](C)(N)[C@H](O)[C@H](C)O2)Oc2ccc(cc2Cl)[C@H]1O [Vancomycin, reference compound]							7.7 (≈ 11.2 µg/mL)	0.3 (≈ 0.435 µg/mL)	> 100	0.35 (≈ 0.507 µg/mL)	7.7
